The test system of one assay is tensin3 IDR (mCh-IDR). The experiment in a line: mitochondrial pulldown, talin constructs with mCh-IDR. It is filed as binding, Homo sapiens. The settings on record: TLN1-E1770A-cBAK vs TLN1-WT-cBAK; HEK293T; three replicates. How it is done: Mitochondrial isolation from HEK293T cells was performed after 24 h of transient expression using a combined method of Qproteome Mitochondria Isolation Kit (QIAGEN) and MACS Mitochondria Isolation Kit (Miltenyi). Cells were collected in ice-cold PBS and aliquoted for the preparation of the whole-cell lysate (wcl) fraction (30%) and the mitochondrial fraction (70%). Cell lysis and homogenization of the mitochondrial fraction were performed according to the manufacturer’s instructions (QIAGEN). Magnetic anti-TOM22 microbeads (Miltenyi) were used to label mitochondria in the homogenized mitochondrial fraction for 1 h at 4°C. The labeled mitochondria were separated from a magnetic column before elution with ice-cold separation buffer (Miltenyi). The eluted mitochondria were washed and centrifuged according to the Miltenyi’s instructions. RIPA buffer (ChromoTek) was used for protein extraction from the wcl and purified mitochondria. Samples were stored at −80°C prior to western blotting.
Samples were mixed with sample buffer (4X, Invitrogen) supplemented with reducing agent (10X, Invitrogen). […] Signals were detected using goat anti-mouse IgG conjugated to IRDye 680RD (1:15,000, ab216776; Abcam) and goat anti-rabbit IgG conjugated to IRDye 800CW (1:15000, ab216773; Abcam) secondary antibodies. […] Western blot analysis and quantification were performed using ImageJ software.

For a further assay, the system named is HFF cells. The experiment in a line: endogenous tensin3 condensates on soft vs stiff PDMS, HFF cells. It is filed as cell-based, human. The settings on record: 1.5 kPa vs 28 kPa FN-coated PDMS, overnight; n = 33 and 40 cells. How it is done: Imaging dishes equipped with 40 µm-thick PDMS substrates (1.5 and 28 kPa) were purchased from ibidi. PDMS dishes were coated with 30 μg/ml FN for 1 h, followed by three washes with PBS. Dishes were incubated with DMEM for 10 min to equilibrate before cells were plated and incubated overnight at 37°C.
To establish a correlation between tensin3 expression and condensation formation, a maximum intensity Z-projection was performed on Z-stack images of NIH3T3 cells (step depth 0.2 μm). The integrated fluorescence intensity was measured by normalizing the mean pixel intensity of each cell to the average of all values in cells expressing mCh-TNS3. To measure the condensate coverage in NIH3T3 cells, the images were background-subtracted (rolling ball) and then thresholded. This was followed by the Analyse Particles function in FIJI/ImageJ to select round condensate structures (circularity 0.7–1.0) ([Bussi et al., 2023]; [Dumelie et al., 2024]) with a size larger than 0.1 μm^2. The same settings were applied to quantify the number of condensates in NIH3T3 and HFF cells.

Here are results for two molecules from publication PMC12637021, “Talin–tensin3 interactions regulate fibrillar adhesion formation and tensin3 phase separation” (The Journal of Cell Biology, 2025).

“TLN1-E1770A-cBAK: constitutively active talin1 construct”: in the assay on tensin3 IDR (mCh-IDR), the “increase in IDR pulldown vs WT talin” value is listed as 50%.

B1: endogenous tensin3: endogenous tensin3 in primary human foreskin fibroblasts (protein, UniProt Q68CZ2 1-1445, looked up)
Tensin-3: MEEGHGLDLTYITERIIAVSFPAGCSEESYLHNLQEVTRMLKSKHGDNYLVLNLSEKRYDLTKLNPKIMDVGWPELHAPPLDKMCTICKAQESWLNSNLQHVVVIHCRGGKGRIGVVISSYMHFTNVSASADQALDRFAMKKFYDDKVSALMQPSQKRYVQFLSGLLSGSVKMNASPLFLHFVILHGTPNFDTGGVCRPFLKLYQAMQPVYTSGIYNVGPENPSRICIVIEPAQLLKGDVMVKCYHKKYRSATRDVIFRLQFHTGAVQGYGLVFGKEDLDNASKDDRFPDYGKVELVFSATPEKIQGSEHLYNDHGVIVDYNTTDPLIRWDSYENLSADGEVLHTQGPVDGSLYAKVRKKSSSDPGIPGGPQAIPATNSPDHSDHTLSVSSDSGHSTASARTDKTEERLAPGTRRGLSAQEKAELDQLLSGFGLEDPGSSLKEMTDARSKYSGTRHVVPAQVHVNGDAALKDRETDILDDEMPHHDLHSVDSLGTLSSSEGPQSAHLGPFTCHKSSQNSLLSDGFGSNVGEDPQGTLVPDLGLGMDGPYERERTFGSREPKQPQPLLRKPSVSAQMQAYGQSSYSTQTWVRQQQMVVAHQYSFAPDGEARLVSRCPADNPGLVQAQPRVPLTPTRGTSSRVAVQRGVGSGPHPPDTQQPSPSKAFKPRFPGDQVVNGAGPELSTGPSPGSPTLDIDQSIEQLNRLILELDPTFEPIPTHMNALGSQANGSVSPDSVGGGLRASSRLPDTGEGPSRATGRQGSSAEQPLGGRLRKLSLGQYDNDAGGQLPFSKCAWGKAGVDYAPNLPPFPSPADVKETMTPGYPQDLDIIDGRILSSKESMCSTPAFPVSPETPYVKTALRHPPFSPPEPPLSSPASQHKGGREPRSCPETLTHAVGMSESPIGPKSTMLRADASSTPSFQQAFASSCTISSNGPGQRRESSSSAERQWVESSPKPMVSLLGSGRPTGSPLSAEFSGTRKDSPVLSCFPPSELQAPFHSHELSLAEPPDSLAPPSSQAFLGFGTAPVGSGLPPEEDLGALLANSHGASPTPSIPLTATGAADNGFLSHNFLTVAPGHSSHHSPGLQGQGVTLPGQPPLPEKKRASEGDRSLGSVSPSSSGFSSPHSGSTISIPFPNVLPDFSKASEAASPLPDSPGDKLVIVKFVQDTSKFWYKADISREQAIAMLKDKEPGSFIVRDSHSFRGAYGLAMKVATPPPSVLQLNKKAGDLANELVRHFLIECTPKGVRLKGCSNEPYFGSLTALVCQHSITPLALPCKLLIPERDPLEEIAESSPQTAANSAAELLKQGAACNVWYLNSVEMESLTGHQAIQKALSITLVQEPPPVSTVVHFKVSAQGITLTDNQRKLFFRRHYPVNSVIFCALDPQDRKWIKDGPSSKVFGFVARKQGSATDNVCHLFAEHDPEQPASAIVNFVSKVMIGSPKKV
With B1, the “increase in tensin3 spheres on soft vs stiff substrate” value with HFF cells is listed as 3.6 fold.
